# Experimental data as given in ChEMBL document CHEMBL5385893, “Bestatin analogs-4-quinolinone hybrids as antileishmanial hits: Design, repurposing rational, synthesis, in vitro and in silico studies” (Eur J Med Chem, 2023).
# The source made the active and inactive calls. No cut-off for these calls is given here.
# Columns and labels:
# [1] = system: Leishmania donovani; assay: Antileishmanial activity against promastigotes-based model of Leishmania donovani MHOM/SD/62/1S-CL2D assessed as growth inhibition by measuring metabolism of resazurin to resorufin by aerobic respiration at 50 uM measured after 3 days relative to control; assay type: functional; conditions: for inhibition at 50 µM: 72 h, time 3 day; for inhibition: time 3.0 day
# [2] = system: Leishmania donovani; assay: Antileishmanial activity against promastigotes-based model of Leishmania donovani MHOM/SD/62/1S-CL2D assessed as growth inhibition by measuring metabolism of resazurin to resorufin by aerobic respiration at 25 uM measured after 3 days relative to control; assay type: functional; conditions: for inhibition at 25 µM: 72 h, time 3 day; for inhibition: time 3.0 day
# [3] = Cytotoxicity against human HEK293T cells assessed as cell death by measuring metabolism of resazurin to resorufin measured after 3 days; assay type: toxicity, cell-based, HEK-293T; conditions: time 3 day
# [4] = Cytotoxicity against human THP-1 cells assessed as cell death by measuring metabolism of resazurin to resorufin measured after 3 days; assay type: toxicity, cell-based; conditions: time 3 day
smiles,measurement,setting,value
Cc1c(C(=O)N[C@@H](Cc2ccccc2)C(=O)C(=O)NCc2ccccc2)[nH]c2ccccc2c1=O,inhibition at 50 µM,[1],22%
same,inhibition at 25 µM,[2],3%
COc1ccc(CNC(=O)[C@H](O)[C@H](Cc2ccccc2)NC(=O)c2[nH]c3ccccc3c(=O)c2C)cc1OC,inhibition at 50 µM,[1],23%
same,inhibition,[2],inactive
Cc1c(C(=O)N[C@@H](Cc2ccccc2)C(=O)C(=O)NCCc2ccccn2)[nH]c2ccccc2c1=O,inhibition,[1],inactive
same,inhibition,[2],inactive
Cc1c(C(=O)N[C@@H](Cc2ccccc2)[C@@H](O)C(=O)NC(C)C)[nH]c2ccccc2c1=O,inhibition at 50 µM,[1],4%
same,inhibition,[2],inactive
Cc1c(C(=O)N[C@@H](Cc2ccccc2)C(=O)C(=O)NCCc2ccccc2)nc2ccccc2c1O,CC50 at 72 h,[3],107 µM
same,inhibition at 50 µM,[1],50%
same,CC50 at 72 h,[4],> 200 µM
same,inhibition at 25 µM,[2],38%
COc1ccc(CCNC(=O)[C@H](O)[C@H](Cc2ccccc2)NC(=O)c2[nH]c3ccccc3c(=O)c2C)cc1,inhibition at 50 µM,[1],13%
same,inhibition,[2],inactive
COc1ccc(CCNC(=O)C(=O)[C@H](Cc2ccccc2)NC(=O)c2[nH]c3ccccc3c(=O)c2C)cc1,inhibition at 50 µM,[1],23%
same,inhibition,[2],inactive
Cc1c(C(=O)N[C@@H](Cc2ccccc2)C(=O)C(N)=O)[nH]c2ccccc2c1=O,inhibition,[1],inactive
same,inhibition,[2],inactive
Cc1c(C(=O)N[C@@H](Cc2ccccc2)[C@@H](O)C(=O)NCCc2ccccn2)[nH]c2ccccc2c1=O,inhibition at 50 µM,[1],31%
same,inhibition at 25 µM,[2],8%
COc1ccc(CNC(=O)[C@H](O)[C@H](Cc2ccccc2)NC(=O)c2[nH]c3ccccc3c(=O)c2C)cc1,inhibition at 50 µM,[1],16%
same,inhibition,[2],inactive
Cc1c(C(=O)N[C@@H](Cc2ccccc2)C(=O)C(=O)NCc2ccc(F)cc2)[nH]c2ccccc2c1=O,inhibition,[1],inactive
same,inhibition,[2],inactive
CCNC(=O)[C@H](O)[C@H](Cc1ccccc1)NC(=O)c1[nH]c2ccccc2c(=O)c1C,inhibition at 50 µM,[1],1%
same,inhibition,[2],inactive
Cc1c(C(=O)N[C@@H](Cc2ccccc2)C(=O)C(=O)NCc2ccccn2)[nH]c2ccccc2c1=O,inhibition,[1],inactive
same,inhibition,[2],inactive
Cc1c(C(=O)N[C@@H](Cc2ccccc2)[C@@H](O)C(=O)NCCc2ccccc2)[nH]c2ccccc2c1=O,inhibition,[1],inactive
same,inhibition,[2],inactive
COc1ccc(CNC(=O)C(=O)[C@H](Cc2ccccc2)NC(=O)c2[nH]c3ccccc3c(=O)c2C)cc1,inhibition at 50 µM,[1],9%
same,inhibition,[2],inactive
Cc1c(C(=O)N[C@@H](Cc2ccccc2)[C@@H](O)C(=O)NCc2ccccn2)[nH]c2ccccc2c1=O,inhibition at 50 µM,[1],12%
same,inhibition,[2],inactive
COc1ccc(CNC(=O)C(=O)[C@H](Cc2ccccc2)NC(=O)c2[nH]c3ccccc3c(=O)c2C)cc1OC,inhibition at 50 µM,[1],38%
same,inhibition,[2],inactive
CNC(=O)[C@H](O)[C@H](Cc1ccccc1)NC(=O)c1[nH]c2ccccc2c(=O)c1C,inhibition at 50 µM,[1],22%
same,inhibition at 25 µM,[2],1%
CNC(=O)C(=O)[C@H](Cc1ccccc1)NC(=O)c1[nH]c2ccccc2c(=O)c1C,inhibition,[1],inactive
same,inhibition,[2],inactive
Cc1c(C(=O)N[C@@H](Cc2ccccc2)C(=O)C(=O)NC(C)C)[nH]c2ccccc2c1=O,inhibition,[1],inactive
same,inhibition,[2],inactive
Cc1c(C(=O)N[C@@H](Cc2ccccc2)[C@@H](O)C(N)=O)[nH]c2ccccc2c1=O,CC50 at 72 h,[3],> 200 µM
same,inhibition at 50 µM,[1],51%
same,CC50 at 72 h,[4],> 200 µM
same,inhibition at 25 µM,[2],17%
Cc1c(C(=O)N[C@@H](Cc2ccccc2)[C@@H](O)C(=O)NCc2ccccc2)[nH]c2ccccc2c1=O,CC50 at 72 h,[3],> 200 µM
same,inhibition at 50 µM,[1],91%
same,CC50 at 72 h,[4],93 µM
same,inhibition at 25 µM,[2],53%
CCCCCCCC/C=C\CCCCCCCCCCCCOP(=O)([O-])OCCC[N+](C)(C)C,CC50 at 72 h,[3],28 µM
same,inhibition at 50 µM,[1],108%
same,CC50 at 72 h,[4],2 µM
same,inhibition at 25 µM,[2],106%
CCNC(=O)C(=O)[C@H](Cc1ccccc1)NC(=O)c1[nH]c2ccccc2c(=O)c1C,inhibition,[1],inactive
same,inhibition,[2],inactive
Cc1c(C(=O)N[C@@H](Cc2ccccc2)[C@@H](O)C(=O)NCc2ccc(F)cc2)[nH]c2ccccc2c1=O,inhibition at 50 µM,[1],8%
same,inhibition,[2],inactive
